In a melting point compilation (Tetko et al.):

SMILES | melting point [°C]
COc1cc(CCC(=O)O)cc(OC)c1 | 54 to 56
COC(=O)COc1ccc2cc(Br)ccc2c1 | 109 to 111
CC=Cc1ccc(OCCCC(=O)OC)c(OC)c1 | 38 to 40
COc1ccc(C2(C(=O)O)CCCC2)cc1OC | 140 to 142
O=C(O)c1cccnc1SCc1ccc(Br)cc1 | 236 to 238
Cc1ccc(-c2ocnc2C(=O)O)cc1 | 193 to 195
CCNS(=O)(=O)c1cc(/C=C/C(=O)O)ccc1OC | 198 to 200
Nc1ccc(Oc2ccc(S(N)(=O)=O)cc2)cc1 | 196 to 198
N#Cc1cc(C(F)(F)F)ccc1-n1cncn1 | 114 to 116
CC1=C(C)C(=O)NC1=O | 113 to 115
Cc1ccc(S(=O)(=O)N(CCC(=O)O)c2ccccc2)cc1 | 145 to 147
CN(CC(N)=S)C(=O)OC(C)(C)C | 149 to 151
CN(C(=O)OC(C)(C)C)c1ccc(C(=N)N)cc1 | 142 to 144
CC(C)(C)OC(=O)Nc1ccncc1C=O | 62 to 64
O=C(O)CN1CCSC1=O | 173 to 175
N#CCc1nc(-c2ccccc2)n[nH]1 | 165 to 167
NC1CC(=O)N(c2ccc(Oc3ccccc3)cc2)C1 (stereo not given) | 112 to 114
Cc1nnnn1-c1cc(N)ccc1F | 109 to 111
Cc1nnnn1-c1cccc(N)c1 | 121 to 123
CCn1c(=O)c2ccccc2n2c(CCl)nnc12 | 195 to 197
N#Cc1c(N)nc2sc(C(=O)Nc3ccc(Br)cc3)c(N)c2c1-c1ccco1 | 257 to 259
Nc1ncccc1OCc1cccnc1 | 104 to 106
O=C1CCCC1Cc1ccccc1[N+](=O)[O-] (stereo not given) | 38 to 40
NC(=O)c1ccncc1F | 126 to 128
O=c1ccc(-c2ccccc2)n[nH]1 | 201 to 204

SMILES | melting point [°C]
NC(=O)CCC(NC(=O)CCC1CCCC1)C(=O)O (stereo not given) | 146 to 148
Nc1cc2c(cc1Br)NC(=O)CO2 | 209 to 211
COCCNc1c(N)n(Cc2ccccc2)c(=O)[nH]c1=O | 209 to 211
O=C(O)CSc1nnc(-c2ccc(F)cc2)o1 | 140 to 142
Cc1cc([N+](=O)[O-])ccc1NC(=O)CCCl | 147 to 149
Cc1ccc(C(N)Cn2ccnc2)c(C)c1 (stereo not given) | 79 to 81
COC(=O)c1ccc(S)cc1 | 53 to 55
CCc1ccc(C(=O)O)cc1S(=O)(=O)N1CCOCC1 | 159 to 161
CC1(C)CC(=O)CC(C)(C)N1C(=O)CCl | 67 to 69
Cn1c(=O)oc2ccc(N)cc21 | 229 to 231
COc1ccnc(N2CCNCC2)c1 | 36 to 38
O=C(O)CCC=Cc1ccccc1 | 86 to 88
CC(=O)c1c(C)[nH]c(C(=O)C(C)Cl)c1C (stereo not given) | 152 to 154
COC(=O)C(CO)NC(=O)C1CCCCC1 (stereo not given) | 109 to 111
COc1cc(C(=O)O)c([N+](=O)[O-])cc1OCC#N | 149 to 151
CC1CCN(C(=O)CCl)c2ccccc2S1 (stereo not given) | 125 to 127
Cc1nc(-c2nnc[nH]2)sc1C(=O)O | 286 to 288
CCCCCNCC(N)=O | 64 to 66
CNS(=O)(=O)c1c(C)noc1C | 70 to 72
NC(=O)Nc1ccc(Cl)c(N)c1 | 176 to 178
Cn1c(=O)c2c(n(Cc3ccccc3)c1=O)NC(=O)C2CC(=O)O (stereo not given) | 243 to 247
O=C(O)c1ncoc1C(F)(F)F | 94 to 96
CC(=O)Nc1nnc(S)s1 | 267 to 269
N#Cc1ccc(I)c(C(F)(F)F)c1 | 100 to 102
COc1cc(C)c(C(C)=O)cc1C | 74 to 76

SMILES | melting point [°C]
CC(C)(C)c1cc(C(=O)O)cc(C(=O)O)c1 | 300 to 302
N#CC1=C(N)CCCC1 | 92 to 94
O=C(CN1CCNCC1)Nc1ccccc1Cl | 99 to 101
Cc1nn(C)c(Oc2cccnc2)c1C=O | 91 to 93
OCc1ccc(OCc2cccs2)cc1 | 68 to 70
N#CSCC(=O)c1ccccc1C(F)(F)F | 49 to 51
O=C1NC(=O)C(c2ccc(F)c(Br)c2)N1 (stereo not given) | 173 to 175
O=C(CBr)c1cccc(N2CCCC2=O)c1 | 83 to 85
CCOC(=O)C(N)c1cccc(O)c1 (stereo not given) | 148 to 150
CCc1cc2c(n1Cc1ccccc1)CCCC2=O | 59 to 61
COC(=O)CS(N)(=O)=O | 57 to 59
Cn1ncc(C(=O)O)c1-c1ccccc1 | 213 to 215
CCOC(CC(N)=O)OCC | 51 to 53
CS(=O)(=O)c1snc(O)c1C#N | 235 to 237
NCc1ccc(N2CCSCC2)cc1 | 50 to 52
COc1ccc(C(=O)N2CCCCCC2)cc1N | 133 to 135
O=C1CCCCC1N1CCS(=O)(=O)CC1 (stereo not given) | 105 to 107
CS(=O)(=O)NCC1CCCNC1 (stereo not given) | 130 to 132
CNC(CO)c1ccc(OC)cc1 (stereo not given) | 57 to 59
Cc1cc(=O)oc2cc(OCC(=O)NN)ccc12 | 179 to 181
NC(=NOC(=O)CCCCl)c1cccs1 | 144 to 146
O=C(CCl)Nc1ccccc1Br | 78 to 80
O=[N+]([O-])c1ccc(Br)c2ccncc12 | 134 to 136
COc1ccc(Br)cc1C(=O)O | 112 to 114
O=C(O)c1cccnc1Oc1ccc(F)cc1Br | 189 to 191

SMILES | melting point [°C]
Cc1cccn2c(=O)c(C(=O)O)cnc12 | 205 to 207
COC(=O)CCNc1ccc(F)cc1[N+](=O)[O-] | 76 to 78
O=C(NO)C12CC3CC(CC(C3)C1)C2 | 110 to 112
Cc1cccc(NC(=O)C(Br)C(C)C)c1C (stereo not given) | 150 to 152
CNS(=O)(=O)c1cccc(C(=O)O)c1 | 209 to 211
CCNC(=O)CCCl | 64 to 66
COC(=O)c1ccc(F)c(C)c1N | 35 to 37
CC(N)c1ccc2[nH]c(=O)[nH]c2c1 (stereo not given) | 394 to 396
O=S(=O)(NCC1CC1)c1ccc(Cl)nc1 | 95 to 97
Cc1cccc(C(=O)NO)c1O | 139 to 141
O=C(O)C1CCCCN1c1ncccn1 (stereo not given) | 156 to 158
Cc1nn(-c2ccccc2)c2ncc(C(=O)O)cc12 | 278 to 280
Nc1ccccc1CN1CCNC1=O | 142 to 144
CC(C)(C)OC(=O)NC(C(N)=NO)C1CC1 (stereo not given) | 147 to 149
O=S(=O)(c1ccc(S)nc1)N1CCCCC1 | 218 to 221
Cc1nnc(S)n1CCS(C)(=O)=O | 193 to 195
N#Cc1ccc(N2CCCC(N)C2=O)cc1 (stereo not given) | 101 to 103
Cc1csc(Sc2ccc(N)cc2Cl)n1 | 112 to 114
NS(=O)(=O)c1ccc(Cl)c(S(=O)(=O)Cl)c1 | 185 to 187
Cc1cc(C(=O)O)sc1C=O | 204 to 206
COC(=O)c1cc(O)ccc1[N+](=O)[O-] | 101 to 103
O=C(O)c1ccc(O)c(-c2ccccc2)c1 | 142 to 144
CN(Cc1ccccc1)c1nc2ccccc2[nH]1 | 206 to 208
CC(O)CNc1nc2ccccc2[nH]1 (stereo not given) | 186 to 188
O=C(O)c1sccc1S(=O)(=O)N1CCCC1 | 128 to 130

SMILES | melting point [°C]
Cc1c(N)cccc1C(=O)N1CCSCC1 | 155 to 157
ON=Cc1ccccc1OCc1cn2ccccc2n1 | 197 to 199
O=[N+]([O-])c1cc(F)ccc1S(=O)(=O)Cl | 40 to 44
NC(Cc1ccccc1)(C(=O)O)c1ccccc1 (stereo not given) | 264 to 266
CC(C)(Oc1cccc(Cl)c1)C(=O)O | 59 to 61
O=C1C(=O)N(Cc2ncon2)c2ccc(Br)cc21 | 197 to 199
Cc1cc(C(=O)O)c(C(=O)O)s1 | 210 to 212
CC(=O)CC(=O)c1cnn(C)c1 | 88 to 90
CC(C)(C)OC(=O)N1CCC2(C1)NC(=O)NC2=O (stereo not given) | 214 to 216
CCCc1[nH]c2ccccc2c1CC | 43 to 45
O=[N+]([O-])c1ccc(CO)c(Br)c1 | 81 to 83
O=C1CC(c2ccccc2)N1 (stereo not given) | 107 to 109
Cn1cc(COc2ccc(O)cc2)cn1 | 186 to 188
CC(C)(C)OC(=O)N1CCC(c2ccc(C(F)(F)F)cc2)C(N)C1 (stereo not given) | 77 to 79
Cc1nnc(N)o1 | 183 to 185
CCCOc1ccc2c(c1)OCC(C=O)=C2 | 55 to 57
COc1cc(NS(=O)(=O)c2ccc(N)cc2)cc(OC)c1 | 153 to 155
NC(=S)NC1CCOCC1 | 228 to 230
O=C(O)C1CC(=O)N(c2ccc3c(c2)Cc2ccccc2-3)C1 (stereo not given) | 254 to 256
O=C(O)CCCc1csc2ccccc12 | 109 to 111
O=C(O)c1cc(O)cs1 | 206 to 208
CCn1cc(S(N)(=O)=O)nc1C | 179 to 181
Cc1nn(CC(C)C)c(C)c1CC(=O)O | 106 to 110
O=C1OCCN1c1ccc(S(=O)(=O)Cl)cc1 | 168 to 170
Cn1cccc(N)c1=O | 112 to 114

SMILES | melting point [°C]
O=C(NCc1ccc(F)cc1)C1CCNCC1 | 139 to 141
CCOC(=O)Cc1nnc(N)s1 | 156 to 158
COc1ccc(NC(=O)C(=O)O)cc1 | 206 to 208
COC(=O)c1cc(NC(=O)C(C)Cl)cc(C(=O)OC)c1 (stereo not given) | 126 to 128
Cc1ccc(-c2cc(C(=O)O)c3c(C)noc3n2)c(C)c1 | 222 to 224
CC(C)(C)c1nccc(N)n1 | 64 to 66
O=S(=O)(c1ccc(S)cc1)C(F)(F)F | 116 to 118
O=C(O)c1ccc(Cl)c(N2CCCS2(=O)=O)c1 | 212 to 214
OCc1sc(N2CCOCC2)nc1-c1ccccc1 | 118 to 120
O=C(CCl)Nc1ccc2c(c1)OCCCO2 | 108 to 110
CC(C)C(Cl)C(=O)O (stereo not given) | 33 to 35
Cn1cccc1C(=O)N1CCNCC1 | 58 to 60
CC(C)(C)n1cc(C#N)cc1NC(=O)OCC(F)(F)F | 147 to 149
O=C(O)c1ccc(Oc2ccc(Oc3ccccc3)cc2)nc1 | 152 to 154
COc1ccc(NC(=O)CCCl)cc1 | 120 to 122
CN1CCCC(N(C)C(=O)c2ccc(N)cc2)C1 (stereo not given) | 116 to 118
Cc1nc(=O)cc[nH]1 | 213 to 215
N#Cc1ccc(NC(=O)CCCCl)cc1 | 114 to 116
O=Cc1ccn(-c2ccccc2)n1 | 49 to 51
O=Cc1cccc(NC(=O)C(F)(F)F)c1 | 102 to 104
